Results taken from patent US20230130243A1, “Method of Treating Urothelial Carcinoma and Other Genitourinary Malignancies Using N-(4-(6,7-dimethoxyquinolin-4-yloxy)phenyl)-N'-(4-fluorophenyl)cyclopropane-1,1-dicarboxamide” (The United States of America, as Represented by the …, priority 2016, published 2023).

Assays:
[1] = system: peripheral blood mononuclear cells (PBMC); assay: PBMC incubated with Cabozantinib, master regulator transcription factors of CD4+ T-cell polarization (FIGS. 1A and 1B); assay type: cell-based; conditions: PBMCs, 3-4 days, 10% FBS-RPMI, Cabozantinib 10 uM vs DMSO control; three donors
Method: With reference to FIGS. 1A and 1B, peripheral blood mononuclear cells (PBMC) were obtained by centrifugation from buffy coat. PBMCs were incubated for 3-4 days in a 24 well plate with 10% FBS-RPMI medium with DMSO (control) or Cabozantinib (10 uM). Representative data obtained from three different donors were shown. […] Naïve CD4+ T-cells can polarize toward four CD4+ lineages.

[2] = system: Treg (CD4+CD25hiFoxp3+) in CD4+ T-cells; assay: Treg population in urothelial cancer patients treated with cabozantinib (FIGS. 1, 2); assay type: in vivo, human
Excerpt: Directly killing the tregs, and 2. Influencing treg polarization. See Apolo, A B, et al., J. Clin. Oncol. 2014; 32s:abstr 4501.
With reference to FIG. 2, it is believed that cabozantinib downregulates regulatory T cell population by acting on T cell polarization via inhibition of transcription factor Foxp3. The biologic rationale for combining cabozantinib and immune checkpoint blockade in mUC can be extrapolated from the results shown in FIGS. 2A and 2B. In FIG. 2A, patients with lower percent Treg (CD4+CD25hiFoxp3+) in CD4+ T-cells (<3.89%=median value) at baseline had better response compared with those who had higher percent Treg at baseline.

[3] = system: metastatic urothelial carcinoma and other genitourinary malignancies; assay: Phase I study of CaboNivo and CaboNivoIpi in patients; assay type: in vivo, human
Excerpt: This example provides results of a Phase I study of Cabozantinib (Cabo)+Nivolumab (Nivo) and (CaboNivo) Cabo+Nivolumab+Ipilimumab (Ipi) (CaboNivoIpi) in patients with metastatic urothelial carcinoma and other genitourinary malignancies.
The study provides results of a Phase I study of Cabozantinib+Nivolumab and Cabozantinib+Nivolumab+Ipilimumab in patients with metastatic urothelial carcinoma and other genitourinary malignancies. The purpose of the study was to determine the dose limiting toxicity (DLT) and recommended Phase II dose (RP2D) of the combination of CaboNivo and separately the combination of CaboNivolpi. In the study, DLT was defined as any event requiring a patient to discontinue study treatment. The DLT evaluation period was 4 weeks (Part 1) and 6 weeks (Part 2).
Secondary endpoints for the study included overall response rate (ORR) by RECIST v1.1; duration of response; progression free survival (PFS); and overall survival (OS). Exploratory Endpoints included the identification of immune subset biomarkers associated with PD-L1 and MET expression as well as correlation with efficacy.
Key eligibility criteria for the study included: • Histologically confirmed diagnostic of genitourinary (GU) malignancy; • Patients with metastatic GU malignancy who has disease progression on at least one standard therapy or there must be no standard treatment that prolongs survival; • A Karnofsky performance status of greater than or equal to 70 percent; and • One evaluable site of disease or bone disease by NaF PET/CT.

[4] = system: relapsed/refractory metastatic urothelial carcinoma (mUC); conditions: pretreated patients with relapsed/refractory mUC; cited from earlier work
[5] = system: metastatic urothelial carcinoma (mUC); conditions: mUC patients progressed despite prior platinum-containing chemotherapy; cited from earlier work

Compound	suppression of master regulator transcription factors of CD4+ T-cell polarization [1]	percent Treg among CD4+ T-cells ([2]; after treatment with Cabozantinib, FIG. 2B)	Treg population ([2]; urothelial cancer patients, FIG. 1, see Apolo et al. 2014)	patients with 3 dose reductions ([3]; 2 of the 18 patients with dose reduction)	patients with 2 dose reductions ([3]; 6 of the 18 patients with dose reduction)	patients with 1 dose reduction ([3]; 10 of the 18 patients with dose reduction)	patients with ≥1 dose reduction of cabozantinib ([3]; 18 of 42 patients)	median dose reduction ([3]; number of dose reductions per patient, 18 patients)	clinical activity [4]	clinical activity [5]
COc1cc2nccc(Oc3ccc(NC(=O)C4(C(=O)Nc5ccc(F)cc5)CC4)cc3)c2cc1OC [Cabozantinib, N-(4-(6,7-dimethoxyquinolin-4-yloxy)phenyl)-N′-(4-fluorophenyl)cyclopropane-1,1-dicarboxamide]	suppresses only Foxp3	decreased significantly	decrease the Treg population	11%	33%	56%	43%	1 (range 1-3)	clinical activity	–
Nivolumab: IgG4 anti-PD-1 monoclonal antibody sold under the name OPDIVO	–	–	–	–	–	–	–	–	–	clinical activity
